Measured values from US20040038903A1, “Gonadotropin releasing hormone antagonists in gel-forming concentration” (priority 2001, published 2004).

How the values were obtained:
Serum LH = experiment: Efficacy of formulation in vivo: serum LH levels; conditions: 25 mg/ml in 5% mannitol, 80 μl/kg s.c., ovariectomised Rhesus monkeys
Experimental: Peptide 1 is dissolved in 5% mannitol (25 mg/ml). Three ovariectomised Rhesus monkeys are treated with this solution (80 μl/kg) by subcutaneous injection. Serum LH levels is measured for the following 101 days.

Serum Testosterone = experiment: Efficacy of formulation in vivo: serum testosterone levels; conditions: 5 mg/ml in 5% mannitol, 100 μl/kg s.c., adult male Beagle dogs
Experimental: Peptide 1 is dissolved in 5% mannitol (5 mg/ml). Three adult male Beagle dogs are treated with this solution (100 μl/kg) by subcutaneous injection. Serum Testosterone levels are measured for the following 42 days. When Testosterone levels started to incline again the experiment was terminated.

[1] = Stability of aqueous solution: gel formation by visual examination; assay type: physicochemical; conditions: room temperature
Experimental: Gel formation was determined by visual examination.

Substance: Ac-DNal-DCpa-DPal-Ser-Aph(L-Hor)-DAph(CONH2)-Leu-Lys(iPr)-Pro-DAla-NH2 [Peptide 1]
- Serum LH, mean ± se (Serum LH; Day 1): 10.5 ± 1.5 ng/mL
- Serum LH, mean ± se (Serum LH; Day 2): 11.8 ± 2.6 ng/mL
- Serum LH, mean ± se (Serum LH; Day 7): 6.7 ± 1.2 ng/mL
- Serum LH, mean ± se (Serum LH; Day 14): 5.8 ± 0.9 ng/mL
- Serum LH, mean ± se (Serum LH; Day 21): 6.6 ± 1.0 ng/mL
- Serum LH, mean ± se (Serum LH; Day 28): 9.4 ± 1.3 ng/mL
- Serum LH, mean ± se (Serum LH; Day 35): 8.8 ± 1.0 ng/mL
- Serum LH, mean ± se (Serum LH; Day 42): 11.8 ± 2.3 ng/mL
- Serum LH, mean ± se (Serum LH; Day 72): 29.5 ± 4.3 ng/mL
- Serum LH, mean ± se (Serum LH; Day 101): 48.9 ± 8.3 ng/mL
- Serum LH, mean ± se (Serum LH; Hour 6): 16.2 ± 1.9 ng/mL
- Serum LH, mean ± se (Serum LH; Time 0): 60.1 ± 7.5 ng/mL
- Serum Testosterone, mean ± se (Serum Testosterone; Day 7): <0.2 nmol/L
- Serum Testosterone, mean ± se (Serum Testosterone; Day 14): <0.2 nmol/L
- Serum Testosterone, mean ± se (Serum Testosterone; Day 21): <0.2 nmol/L
- Serum Testosterone, mean ± se (Serum Testosterone; Day 28): <0.2 nmol/L
- Serum Testosterone, mean ± se (Serum Testosterone; Day 42): 3.3 ± 3 nmol/L
- Serum Testosterone, mean ± se (Serum Testosterone; Hour 4): <0.2 nmol/L
- Serum Testosterone, mean ± se (Serum Testosterone; Time 0): 13.8 ± 5.7 nmol/L
- Stability (time to gel formation) ([1]; 0.25 mg/ml (calculated as free base) in water): No gel formation after 6 months
- Stability (time to gel formation) ([1]; 1.0 mg/ml (calculated as free base) in water): No gel formation after 6 months
- Stability (time to gel formation) ([1]; 5.0 mg/ml (calculated as free base) in water): Gel formation after 4 weeks
- Stability (time to gel formation) ([1]; 10.0 mg/ml (calculated as free base) in water): Gel formation after 2 weeks
- Stability (time to gel formation) ([1]; 30.0 mg/ml (calculated as free base) in water): Gel formation after 48 hours
- Stability (time to gel formation) ([1]; 40.0 mg/ml (calculated as free base) in water): Gel formation after 24 hours
- Stability (time to gel formation) ([1]; 60.0 mg/ml (calculated as free base) in water): Gel formation after 8 hours
- Stability (time to gel formation) ([1]; 80.0 mg/ml (calculated as free base) in water): Rapid gel formation within 60 minutes
- Stability (time to gel formation) ([1]; 120.0 mg/ml (calculated as free base) in water): Rapid gel formation within 30 minutes
